Data on 17 molecules can be found in PubChem BioAssay (NCI).

Some test systems named below: DLD-1 colon; M14 melanoma; U251 CNS; SNB-75 CNS; KM20L2 colon; SK-OV-3 ovarian; M19-MEL melanoma; SNB-78 CNS; KM12 colon.
Holding throughout (experiment): NCI anticancer screen, dose series, 48 h

Molecules are shown by their SMILES. Where “and” joins values, the source holds several entries; their conditions need not be identical. Identical values can stand only once.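 Five concentrations, 48 hours, 96-well plates. GI50 is the concentration that inhibits growth by half. TGI: concentration producing complete growth inhibition.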

Turning to `Cc1cccc(C)c1NC(=O)C(=O)Cc1nc2ccccc2s1`, the TGI in the test on DLD-1 colon, with M14 melanoma, in the test with U251 CNS, with SNB-75 CNS, with KM20L2 colon and in the test on SK-OV-3 ovarian was greater than 100 µM throughout. Also, the TGI in the test on M19-MEL melanoma, in the test on SNB-78 CNS and in the test with KM12 colon was greater than 100 µM throughout.

On to `O=C(CC1=Nc2nnc(CCCCCCCc3nnc4n3C(=O)C(CC(=O)c3ccc5ccccc5c3)=N4)n2C1=O)c1ccc2ccccc2c1`, for which the TGI in the test on DLD-1 colon, in the test with M14 melanoma, with U251 CNS, in the test on SNB-75 CNS, in the test with KM20L2 colon and in the test with SK-OV-3 ovarian was greater than 100 µM each time. The TGI in the test on M19-MEL melanoma, in the test on SNB-78 CNS and in the test with KM12 colon was greater than 100 µM in each case.

Consider `Cc1cc(Cl)ccc1NC(=O)CCCC(=O)C1C/C(=N/O)CC/C1=N\O` (centres undefined), for which the TGI with DLD-1 colon, with M14 melanoma, in the test with U251 CNS, with SNB-75 CNS, in the test with KM20L2 colon and in the test with SK-OV-3 ovarian was greater than 100 µM in each case. Further, the TGI with M19-MEL melanoma, with SNB-78 CNS and with KM12 colon was greater than 100 µM in each case.

Take `COC1(OC)C2(Cl)C3=CCCC=C3C1(Cl)C(Cl)=C2Cl`: the TGI was greater than 100 µM in the test with DLD-1 colon; 31.4 µM in the test with M14 melanoma; 82.1 µM with U251 CNS; greater than 100 µM in the test with SNB-75 CNS; 60.4 µM with KM20L2 colon; 72.6 µM in the test with SK-OV-3 ovarian. For the same molecule, the TGI with M19-MEL melanoma was 47.4 µM; in the test on SNB-78 CNS, greater than 100 µM; with KM12 colon, greater than 100 µM.

Consider `O=C1CC23CCCCCCCCCCC2(C1)CC(=O)C3` (centres undefined), for which the TGI is greater than 100 µM in the test on DLD-1 colon; 44.4 µM in the test on M14 melanoma; 75.6 µM with U251 CNS; 65.2 µM in the test with SK-OV-3 ovarian; 48.4 µM in the test with M19-MEL melanoma; 45 µM with KM12 colon.

As to `COc1ccc(-c2ccc(CC(=O)O)cc2)cc1OC`, the TGI in the test with DLD-1 colon, in the test with M14 melanoma, in the test on U251 CNS, in the test on SNB-75 CNS, in the test on KM20L2 colon and in the test on SK-OV-3 ovarian was greater than 100 µM throughout. Moreover, the TGI with M19-MEL melanoma, with SNB-78 CNS and in the test on KM12 colon was greater than 100 µM in each case.

Regarding `CC(=O)N1[C@H](C(=O)O)CS[C@H]1c1ccc(F)cc1`, the TGI with M14 melanoma, in the test on SNB-75 CNS, in the test with M19-MEL melanoma and with SNB-78 CNS was greater than 100 µM each time.

With `COC(=O)C1CC(c2ccc(OC)c(OC)c2)OC1=O` (mixture of isomers), the TGI in the test on DLD-1 colon, with M14 melanoma, with U251 CNS, with SNB-75 CNS, in the test on KM20L2 colon and with SK-OV-3 ovarian was greater than 100 µM throughout. Besides, the TGI in the test with M19-MEL melanoma, in the test with SNB-78 CNS and with KM12 colon was greater than 100 µM in each case.

As for `C1=CC(=P(c2ccccc2)(c2ccccc2)c2ccccc2)C=C1`, the TGI came out at 62.5 µM in the test on DLD-1 colon; 24.3 µM with M14 melanoma; 20.8 µM in the test with SNB-75 CNS; 31.1 µM with KM20L2 colon; 35.3 µM in the test on SK-OV-3 ovarian; 14.2 µM in the test on M19-MEL melanoma. Further, the TGI in the test with SNB-78 CNS stood at 26.7 µM; in the test on KM12 colon it was 24.4 µM.

Turning to `COC(=O)C1C=CCC2CCCCC21N1CCCC1` (centres undefined), the TGI in the test on DLD-1 colon, in the test with M14 melanoma, in the test on U251 CNS, with SNB-75 CNS, in the test with KM20L2 colon and in the test on SK-OV-3 ovarian was greater than 100 µM throughout. Further, the TGI in the test on M19-MEL melanoma, in the test on SNB-78 CNS and in the test on KM12 colon was greater than 100 µM throughout.

For the molecule `Cc1nnc2n1N=C(c1ccccc1)C(c1ccccc1)S2` (centres undefined), the TGI in the test with DLD-1 colon was greater than 100 µM; in the test on M14 melanoma, 46.5 µM; in the test with U251 CNS it was 72 µM; in the test on SNB-75 CNS it was 79.7 µM; in the test with KM20L2 colon, 76.3 µM; in the test on SK-OV-3 ovarian it was 68.2 µM. Besides, the TGI in the test on M19-MEL melanoma, in the test with SNB-78 CNS and in the test on KM12 colon was greater than 100 µM in each case.

Regarding `COc1cc(C)c2c(c1)CN1CN2Cc2cc(OC)cc(C)c21`, the TGI in the test on DLD-1 colon was greater than 100 µM; in the test with M14 melanoma, greater than 100 µM; in the test with U251 CNS, greater than 100 µM; with SNB-75 CNS, 46.3 µM; with SK-OV-3 ovarian it was greater than 100 µM; in the test on M19-MEL melanoma, greater than 100 µM. In addition, the TGI with SNB-78 CNS and with KM12 colon was greater than 100 µM in each case.

In the case of `CC(=O)Nc1ccc(C2CC(c3ccc([N+](=O)[O-])cc3)=Nc3ccccc3S2)cc1` (centres undefined), the TGI is 32.4 µM in the test on DLD-1 colon; 27.6 µM in the test with M14 melanoma; 29.8 µM with U251 CNS; greater than 100 µM in the test on SNB-75 CNS; 47.9 µM in the test on KM20L2 colon; 87.8 µM in the test with SK-OV-3 ovarian. The TGI in the test with M19-MEL melanoma is 45.6 µM; in the test on SNB-78 CNS it was greater than 100 µM; in the test with KM12 colon, 30.6 µM.

Turning to `N/N=C(/Cc1ccccc1)NNO`, the TGI with DLD-1 colon is greater than 100 µM; in the test on M14 melanoma, greater than 100 µM; in the test on SNB-75 CNS it was greater than 100 µM; in the test with KM20L2 colon, greater than 100 µM; in the test with M19-MEL melanoma it was greater than 100 µM; in the test on KM12 colon, 34.9 µM.

For `CC(C)(C)C#COC(=O)c1ccccc1`, the TGI in the test on DLD-1 colon, with M14 melanoma, in the test with U251 CNS, with KM20L2 colon, in the test with SK-OV-3 ovarian and in the test with M19-MEL melanoma was greater than 100 µM in each case. The TGI with SNB-78 CNS and with KM12 colon was greater than 100 µM each time.

`CN1CCCC2[C@@H]3CCC4c5nonc5CC[C@]4(C)C3CC[C@@]21C` (some centres undefined): the TGI in the test with DLD-1 colon, in the test on U251 CNS, with SNB-75 CNS, in the test with KM20L2 colon, with SK-OV-3 ovarian and with M19-MEL melanoma was greater than 100 µM throughout. In addition, the TGI in the test on SNB-78 CNS and with KM12 colon was greater than 100 µM throughout.

Take `c1ccc2c(c1)[nH]c1c2nc2ccccn21`: the TGI in the test with DLD-1 colon, with M14 melanoma, in the test with U251 CNS, in the test with SNB-75 CNS, in the test with KM20L2 colon and in the test on SK-OV-3 ovarian was greater than 100 µM each time. The TGI in the test with M19-MEL melanoma, in the test with SNB-78 CNS and with KM12 colon was greater than 100 µM in each case. Also, the GI50 with SNB-75 CNS is 45.6 µM and > 100 µM.
